Data on 13 substances can be found in patent publication US5756458A, “Stabilized potent GRF analogs” (Pharmacia & Upjohn Company, priority 1995, dated 1998).

Where two headings read alike, the source gives them in different places. Where no end group is shown, it is not given here.

Series [1] has as its system primary cultures of rat anterior pituitary cells. The following applies: GH secretion; cited from earlier work.
Series [2] can be described thus: In vitro stability in bovine plasma. The format is in vitro ADME. On the procedure:
| ^.noteq. Peptides at 0.03 mM were incubated with bovine plasma at | 37° C. for one hr. Aliquots of 0.1 ml were quenched with 2 ml of | 0.2% aqueous trifluoroacetic acid solution and subjected to solid phase | extraction and HPLC analysis as described in T.M. Kubiak et al. Drug Met. | Disp. 17, 393-397 (1989).

The next series addresses T1, plasma DPP-IV (Bos taurus, UniProt P81425).
T1 construct: from tissue; host or cells: bovine plasma (two different plasma pools)
As to the kind of experiment: Cleavage after residue 2 by plasma DPP-IV on incubation in bovine plasma in vitro. The format is in vitro ADME. The arrangement: Cleavage after residue 2 (footnote mark ++): key to the marks not given beside the values. On the procedure: Evidence of the improved metabolic stability of the compounds of this invention (when compared to native GRF) is illustrated in Table I by the in vitro stability data provided. It is noteworthy that in bovine plasma in vitro, the analogs having Thr^2, Val^2, Ile^2 or Leu^2 were not cleaved after residue 2 by plasma DPP-IV under the experimental conditions used in the study (one hour plasma incubation).
++ No cleavage after residue 2 was observed upon incubation in bovine
plasma in vitro over a 1 hr incubation period.

The subject of series [3] is rat pituitary cell cultures. In words: Growth hormone (GH) release in rat pituitary cell cultures in vitro (FIG. 1). The format is cell-based. The following applies: Leu^27 -bGRF(1-29)NH2 assay standard. On the procedure: Effect of analogs of Thr^2, Ala^15, Leu^27 -bGRF(1-29)NH2 on growth hormone (GH) release in rat pituitary cell cultures in vitro. The assay was performed according to procedure of Frohman and Downs, Methods Enzymol. 124, 371-389 (1986). […] Leu^27 -bGRF(1-29)NH2 was used as the assay standard.

Another series deals with meal-fed Holstein steers. As to the kind of experiment: Mean serum GH in meal-fed Holstein steers after intravenous injection (FIG. 2). Type of series: in vivo. The following applies: dose of 0.01 nmol/kg (10 pmol/kg). On the procedure:
The enhanced in vivo potency of the compounds of this invention where R19 is Val or Ile is illustrated in FIGS. 1 and 2.
Mean concentration of serum growth hormone (GH) in meal-fed Holstein steers after intravenous injection (10 pmol/kg) of GRF analogs. The assay was performed as described by Moseley et al., J. Endocrinol. 117, 252-259 (1988). Bovine GRF(1-44)NH2 was used as the assay standard.

Series [4] concerns Steers. Type of series: in vivo, steer. As for the experimental part:
| ^# Steers were injected iv with peptides at the dose of 0.01 nmol/kg | and the procedures were as described in W.M. Moseley et al. J. Endocr. | 117, 253-259 (1988). Relative potency was calculated on the basis of the | area under serum growth hormone (GH) curve monitored for 2 hrs after | treatment.

The subject of series [5] is Steers. The format is in vivo, steer. The following applies: STUDY II, subcutaneous 0.75 nmol/kg, area under serum GH curve, 6 hrs after treatment, bGRF(1-44)NH2 = 100. On the procedure:
| ^.sctn. Steers were injected subcutaneously with peptides at the dose | of 0.75 nmol/kg. Relative potency was calculated on the basis of the area | under serum GH curve monitored for 6 hrs after treatment.

[6] abbreviates: bovine plasma, STUDY I, plasma pool 1, peptide 0.03 mM, bovine plasma, 37° C., one hr, read-out: In vitro stability (% Inact peptide after 1 hr).
The mark [7] stands for this setting: bovine plasma, STUDY II, plasma pool 2, peptide 0.03 mM, bovine plasma, 37° C., one hr, read-out: In vitro stability (% Inact peptide after 1 hr).

T1 sequence (P81425 38-765 limits assumed): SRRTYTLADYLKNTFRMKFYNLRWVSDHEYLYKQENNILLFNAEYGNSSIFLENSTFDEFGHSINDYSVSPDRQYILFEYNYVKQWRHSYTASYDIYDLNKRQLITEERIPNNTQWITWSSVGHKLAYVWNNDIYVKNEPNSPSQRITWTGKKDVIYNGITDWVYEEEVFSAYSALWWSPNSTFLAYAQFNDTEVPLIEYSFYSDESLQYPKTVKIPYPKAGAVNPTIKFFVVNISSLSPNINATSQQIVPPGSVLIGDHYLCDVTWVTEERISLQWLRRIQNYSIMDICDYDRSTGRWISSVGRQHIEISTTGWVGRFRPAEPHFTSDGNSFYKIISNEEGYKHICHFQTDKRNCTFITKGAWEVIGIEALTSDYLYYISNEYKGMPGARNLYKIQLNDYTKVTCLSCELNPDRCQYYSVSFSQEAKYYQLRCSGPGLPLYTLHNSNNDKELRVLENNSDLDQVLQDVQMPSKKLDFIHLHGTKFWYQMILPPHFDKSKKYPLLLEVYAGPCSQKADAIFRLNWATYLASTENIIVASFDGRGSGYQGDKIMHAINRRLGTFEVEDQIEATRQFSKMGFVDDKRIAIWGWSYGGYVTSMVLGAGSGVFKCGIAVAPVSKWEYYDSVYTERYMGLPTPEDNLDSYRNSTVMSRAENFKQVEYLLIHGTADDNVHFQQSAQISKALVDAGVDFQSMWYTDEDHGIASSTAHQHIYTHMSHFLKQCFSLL

Regarding “H-Tyr-Ala-Asp-Ala-Ile-Phe-Ser-Ser-Ala-Tyr-Arg-Arg-Leu-Leu-Ala-Gln-Leu-Ala- Ser-Arg-Arg-Leu-Leu-Gln-Glu-Leu-Leu-Ala-Arg-NH2 /OH [free acid form] (H-YADAIFSSAYRRLLAQLASRRLLQELLAR-OH) [29-amino acid analog of hGRF designed by G. Velicelebi, et al., free acid form]”, the “Potency relative to hGRF(1-40)OH (times as potent)” value in series [1] was 1/6. Substance “H-YTDAIFTNSYRKVLAQLSARKLLQDILNR-NH2 [Thr^2,Ala^15,Leu^27-bGRF(1-29)NH2]” gave a remaining at 1 h, 0.03 mM in series [2] (plasma, In vitro stability (% Inact peptide after 1 hr)) of 91.1%. Also, on plasma DPP-IV, the “Cleavage after residue 2 (footnote mark ++)” value is recorded as “++” and the DPP-IV related cleavage result was “slight DPP-IV related cleavage”. On to H-YTDAIFTNSYRKVLAQLSVRKLLQDILNR-NH2, for which the “GH-releasing bioactivity in vitro as compared with Thr^2, Ala^15, Leu^27 -bGRF(1-29)NH2” value in series [3] was “increased”. In addition, the “In vivo bioactivity compared with native GRF” value in the series with meal-fed Holstein steers was “more bioactive than the native GRF”.

For the substance “YADAIFTNSYRKVLAQLSARKLLQDILNR-NH2 [Ala^15,Leu^27-bGRF(1-29)NH2, reference compound]”, the remaining at 1 h, 0.03 mM in series [2] (setting [6]) turned out to be 56.2%.

With “YTDAIFTNSYRKVLGQLSARKLLQDILNR-NH2 [Thr^2,Leu^27-bGRF(1-29)NH2]”, the remaining at 1 h, 0.03 mM in series [2] (setting [6]) turned out to be 75.6%.

“YADAIFTNSYRKVLGQLSARKLLQDILNR-NH2 [Leu^27-bGRF(1-29)NH2, reference compound]”: the remaining at 1 h, 0.03 mM in series [2] (setting [6]) was 39.8%; in series [2] (setting [7]) it was 46.8%. On to “YTDAIFTNSYRKVLAQLSLRKLLQDILNR-NH2 [Leu^19]”, for which the “GH-releasing bioactivity in vitro as compared with Thr^2, Ala^15, Leu^27 -bGRF(1-29)NH2” value in series [3] is “deleterious”. Regarding “H-YIDAIFTNSYRKVLAQLSARKLLQDILNR-NH2 [Ile^2,Ala^15,Leu^27-bGRF(1-29)NH2]”, in series [2] (setting [7]), the remaining at 1 h, 0.03 mM came to 80.3%. In addition, in the series with Steers [4] (extrapolated from relative in vivo potency at 0.01 nmol/kg, ED50 not determined), the “Expected potency relative to isomer Leu^2 Ala^15 Leu^27 bGRF(1-29)NH2 when the ED50 of each is determined and compared” value is recorded as 10-20 times. Further, the “In vivo relative potency sc” value in the series on Steers [5] was found to be 16c. As for “H-YVDAIFTNSYRKVLAQLSARKLLQDILNR-NH2 [Val^2,Ala^15,Leu^27-bGRF(1-29)NH2]”, in series [2] (setting [7]), the remaining at 1 h, 0.03 mM was determined as 83.4%. In the case of “YLDAIFTNSYRKVLAQLSARKLLQDILNR-NH2 [Leu^2,Ala^15,Leu^27-bGRF(1-29)NH2, reference compound]”, the remaining at 1 h, 0.03 mM in series [2] (setting [7]) worked out at 86.3%. YTDAIFTNSYRKVLAQLSIRKLLQDILNR-NH2: the “GH-releasing bioactivity in vitro as compared with Thr^2, Ala^15, Leu^27 -bGRF(1-29)NH2” value in series [3] is reported as “unchanged”. The “In vivo bioactivity compared with native GRF” value with meal-fed Holstein steers is reported as “more bioactive than the native GRF”. Regarding bGRF(1-14)NH2 [reference compound], the “In vivo relative potency iv” value in the series with Steers [4] (STUDY I, steers, iv 0.01 nmol/kg, area under serum GH curve, 2 hrs after treatment, native bGRF standard = 100) is recorded as 100. For the substance “H-Tyr-Ala-Asp-Ala-Ile-Phe-Ser-Ser-Ala-Tyr-Arg-Arg-Leu-Leu-Ala-Gln-Leu-Ala- Ser-Arg-Arg-Leu-Leu-Gln-Glu-Leu-Leu-Ala-Arg-NH2 /OH [amide analog] (H-YADAIFSSAYRRLLAQLASRRLLQELLAR-NH2) [29-amino acid analog of hGRF designed by G. Velicelebi, et al., amide form]”, the “Potency relative to hGRF(1-40)OH (times as potent)” value in series [1] is listed as 1.57.
